Measurements: patent US5106871A, “Anti-ulcer agent comprising chalcone derivative as effective ingredient and novel chalcone derivative” (Tsumura & Co., priority 1986, dated 1992)

How the values were obtained:
gastric mucous membrane [1] = assay: 100% ethanol-induced gastric mucous membrane damage in rats (Experimental Example 1); type: in vivo, male rats of the Wister line
Description: After 1 hour from the administration of 100% ethanol, the abdominal operation was carried out, and the length of the damaged region on the gastric mucous membrane was measured as the mucous membrane damage coefficient and compared with the value obtained in the control group. Note, a 0.5% solution of CMC not containing a compound of formula I was intraabdominally or orally administered in the control group.

gastric mucous membrane [2] = assay: 0.6N hydrochloric acid-induced gastric mucous membrane damage in rats (Experimental Example 2); type: in vivo, male rats of the Wister line; conditions: Table 7, 100 mg/kg i.p.
Description: A suspension of a compound of formula I in a […] of CMC (carboxymethyl cellulose) was intraabdominally administered in male rats of the Wister line (each group consisting of 10 rats) having a body weight of 180 to 200 g, which had been made to fast for 24 hours, and after 30 minutes, 1 ml of 0.6N hydrochloric acid was orally administered. After 1 hour from the administration of 0.6N hydrochloric acid, the abdominal operation was carried out, and the length of the damage on the gastric mucous membrane was measured as the mucous membrane damage coefficient and compared with the value obtained in the control group in the control group. Note, a 0.5% solution of CMC was intraabdominally administered. Data of the inhibition ratio calculated according to the following formula is shown in Tables 5 through 7: [formula] wherein A stands for the value obtained in the control group and B stands for the value obtained in the group in which the compound of formula I had been administered.

SMILES: COc1ccc(CCC(=O)c2c(OC)cc(OC)c(CCC(C)C)c2OCC(=O)O)cc1 [Specific Example 35, 1-(2-carboxymethoxy-4,6-dimethoxy-3-isopentylphenyl)-3-(4-methoxyphenyl)-1-propanone]
- inhibition in vivo at 35 mg/kg (gastric mucous membrane [1]; Rattus norvegicus, ip, 1 h, Table 1, 35 mg/kg i.p., vs control, read-out: Inhibition Ratio): 67.2%
- inhibition in vivo at 100 mg/kg (gastric mucous membrane [1]; Rattus norvegicus, po, 1 h, Table 2, 100 mg/kg p.o., vs control, read-out: Inhibition Ratio): 81.2%
- Mucous Membrane Damage Coefficient (gastric mucous membrane [1]; Table 1, 35 mg/kg i.p., control 102.6): 33.7 mm
- Mucous Membrane Damage Coefficient (gastric mucous membrane [1]; Table 2, 100 mg/kg p.o., control 87.7): 16.5 mm
- Mucous Membrane Damage Coefficient (gastric mucous membrane [2]; control 133.8): 65.8 mm
- Inhibition Ratio (gastric mucous membrane [2]; vs control): 50.8%
